Data taken from paper PMC7563019 (Acta Pharmaceutica Sinica. B, 2020).

Molecular target: LSD1 (Homo sapiens, UniProt O60341)
Assay: LSD1 enzymatic assay
Format: biochemical
Details: for inhibition at 1 µM: read-out: Inhibition rate (%) at 1 μmol/L against LSD1

Row | IC50 [µM] | inhibition at 1 µM [%] | fold stronger LSD1 inhibitory activity than compound 14a | Compound
1 | 0.232 ± 0.002 | – | – | Cc1ccc(-c2nc(SCc3cn(CC(=O)NC(=O)Nc4ccccn4)nn3)nc(Nc3cccc(Cl)c3)c2C#N)cc1 [Compound 14p]
2 | > 125 | – | – | Cc1ccc(Nc2nc(SCC(=O)NC(=O)Nc3ccccn3)nc(-c3ccc(C(C)C)cc3)c2C#N)cc1 [Compound 16b]
3 | 3.82 ± 0.582 | 46.3 | – | Cc1ccc(Nc2nc(SCc3cn(CC(=O)NC(=O)Nc4ccccn4)nn3)nc(-c3ccc(Br)cc3)c2C#N)cc1 [Compound 14d]
4 | 6.31 ± 0.719 | – | – | N#Cc1c(Nc2cccc(Cl)c2)nc(SCc2cn(Cc3ccccc3Cl)nn2)nc1-c1ccccc1 [Compound 10c]
5 | > 64 | – | – | C#CCSc1nc(Nc2ccc(C)cc2)c(C#N)c(-c2ccccc2)n1 [Compound 7f]
6 | 0.628 ± 0.027 | – | – | N#Cc1c(Nc2ccc(Cl)cc2)nc(SCc2cn(Cc3ccccc3Cl)nn2)nc1-c1ccccc1 [Compound 10b]
7 | 0.531 ± 0.002 | 91.4 | about 3.5 fold | Cc1ccc(Nc2nc(SCc3cn(CC(=O)NC(=O)Nc4ccccn4)nn3)nc(-c3ccc(Cl)cc3)c2C#N)cc1 [Compound 14c]
